Results: patent publication EP0300423A2, “Cephalosporin compound, method of its production and composition for prevention and treatment of bacterial infectious diseases” (Kyoto Pharmaceutical Industries, Ltd., priority 1987, dated 1989)
Converted amounts (≈) assume the structure as drawn. Where a name gives a salt, the structure may show the parent alone.

What was measured:
Escherichia coli NIH = assay: Antibacterial activity test, minimum inhibitory concentration; type: cell-based
[1] = tested on: Staphylococcus aureus Smith; assay: as above; type: cell-based
[2] = Acute toxicity test, oral administration; details: mouse, in vivo, male ICR mice, 5 weeks in age, n = 3, orally administered as aqueous solution in distilled water, read-out: LDso value
Protocol: The acute toxicity of the orally administered cephalosporin derivative of this invention in mice was determined. The test is summarized as follows:
Subject animals: Male mice (ICR, at 5 weeks in age), n = 3
Method of administration: The cephalosporin derivative as obtained in Example 3 below was dissolved in distilled water, and this aqueous solution was orally administered.

Row | Structure (SMILES) | MIC (Escherichia coli NIH) | MIC [1] | LD50 [2]
1 | O=C(O)C1=C(CSc2ncns2)CS[C@@H]2[C@H](NC(=O)[C@H](O)c3ccccc3)C(=O)N12 [Example 1, 7-D-(-)Mandelamido-3-(1,2,4-thiadiazol-5-yl)thiomethyl-3-cephem-4-carboxylic acid] | 0.39 µg/mL (≈ 0.84 µM) | 0.2 µg/mL (≈ 0.431 µM) | 
2 | C[C@H](N)C(=O)O[C@@H](C(=O)N[C@@H]1C(=O)N2C(C(=O)OCOC(=O)C(C)(C)C)=C(CSc3ncns3)CS[C@H]12)c1ccccc1 [Example 3, Pivaloyloxymethyl 7-[D-O-(L-alanyl)mandelamido]-3-[(1,2,4-thiadiazol-5-yl)thiomethyl]-3-cephem-4-carboxylate hydrochloride] |  |  | < 5000 mg/kg
3 | N[C@@H](C(=O)N[C@@H]1C(=O)N2C(C(=O)O)=C(Cl)CS[C@H]12)c1ccccc1 [Cefaclor, cefaclor, reference compound] | 0.78 µg/mL (≈ 2.12 µM) | 1.56 µg/mL (≈ 4.24 µM) | 
